One compound from patent publication US8883410B2, “Method for determining the stability of organic methyleneamines in the presence of semicarbazide-sensitive amine oxidase” (Sanofi, priority 2007, dated 2014) can be followed below.

In this data set the target is T1, human SSAO T1 (Gly27-Asn763), C-terminal 6xHIS tag (Homo sapiens, UniProt Q16853).
T1 construct: T1 (Gly27-Asn763) Representing the Enzyme Lacking the Membrane Anchoring Region; additional N-terminal Met (N); expressed in transfected cells; cell lysate
T1 sequence (Q16853 27-763): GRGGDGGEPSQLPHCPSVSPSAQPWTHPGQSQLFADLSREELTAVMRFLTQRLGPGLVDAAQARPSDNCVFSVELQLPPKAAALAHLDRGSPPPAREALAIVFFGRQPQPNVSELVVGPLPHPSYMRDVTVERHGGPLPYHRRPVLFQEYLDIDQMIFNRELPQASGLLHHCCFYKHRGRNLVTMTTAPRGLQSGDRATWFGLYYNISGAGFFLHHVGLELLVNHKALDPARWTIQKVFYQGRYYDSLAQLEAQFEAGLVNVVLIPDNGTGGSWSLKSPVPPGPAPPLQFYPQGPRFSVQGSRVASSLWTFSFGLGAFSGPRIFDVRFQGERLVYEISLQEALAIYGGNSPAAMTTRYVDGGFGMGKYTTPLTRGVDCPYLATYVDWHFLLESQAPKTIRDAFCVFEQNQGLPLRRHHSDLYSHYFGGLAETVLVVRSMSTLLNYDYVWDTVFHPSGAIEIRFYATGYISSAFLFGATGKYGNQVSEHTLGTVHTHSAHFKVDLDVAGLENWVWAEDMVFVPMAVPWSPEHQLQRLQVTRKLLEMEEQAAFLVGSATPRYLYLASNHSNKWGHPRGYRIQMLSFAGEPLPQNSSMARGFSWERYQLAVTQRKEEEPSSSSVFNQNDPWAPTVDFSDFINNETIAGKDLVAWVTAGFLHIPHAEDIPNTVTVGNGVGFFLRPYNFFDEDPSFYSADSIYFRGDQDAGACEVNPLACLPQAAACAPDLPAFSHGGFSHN
The data set is described as follows: Benzylamine stability in lysate of cells expressing T1 SSAO with C-terminal 6xHIS tag, LC/MS/MS. It is filed as in vitro ADME. On the procedure:
3) T1 (Gly27-Asn763) Representing the Enzyme Lacking the Membrane Anchoring Region:
The expression constructs were prepared by cloning these PCR products into the pCDNA5-FRT-To-DEST vector (Invitrogen, Gateway System™). The forward and reverse DNA sequence of each construct was confirmed including expressed sequences and at least 100 base pairs either side of this. Stable cell lines for Flp-In CHO, Flp-In CHO T-Rex, and Flp-In HEK 293 (Invitrogen, Flp-In system™) were generated using these 6 constructs according to manufacturer's instructions. Cells were co-transfected with the regulatory vector, pOG44, and each of the pCDNA5-FRT-To-DEST constructs using Lipfectamine (Invitrogen) according to manufacturer's instructions. Thus, 18 cell lines were generated: CHO Flp-In full-length SSAO; CHO Flp-In full-length SSAO with C-terminal 6×HIS tag; CHO Flp-In T1 SSAO; CHO Flp-In T1 SSAO with C-terminal 6×HIS tag; CHO Flp-In T2 SSAO; CHO Flp-In T2 SSAO with C-terminal 6×HIS tag; CHO T-Rex Flp-In full-length SSAO; CHO T-Rex Flp-In full-length SSAO with C-terminal 6×HIS tag; CHO T-Rex Flp-In T1 SSAO; CHO T-Rex Flp-In T1 SSAO with C-terminal 6×HIS tag; CHO T-Rex Flp-In T2 SSAO; CHO Flp-In T2 SSAO with C-terminal 6×HIS tag; HEK 293 Flp-In full-length SSAO; HEK 293 Flp-In full-length SSAO with C-terminal 6×HIS tag; HEK 293 Flp-In T1 SSAO; HEK 293 Flp-In T1 SSAO with C-terminal 6×HIS tag; HEK 293 Flp-In T2 SSAO; HEK 293 Flp-In T2 SSAO with C-terminal 6×HIS tag.
Adherent CHO cells were cultured at 37° C., 5% CO2 in media containing Ham's F12, 10% fetal bovine serum, 2 mM L-glutamine, 1% Penicillin/Streptomycin, 300 μM hygromycin B. Adherent HEK 293 cells were cultured at 37° C., 5% CO2 in D-MEM (high glucose), 10% fetal bovine serum, 2 mM L-glutamine, and 200 μM hygromycin B. Stable transformants were identified by loss of zeocin resistance. Once the cells were 80% confluent, SSAO expression was induced by the addition of Tetracycline to 1 μg/mL. Following 18 hours, the cells were harvested using a trypsin treatment of 3 minutes, at room temperature. Cells were washed 3 times in phosphate buffered saline before flash freezing in liquid nitrogen.
For the preparation of cell lysate for activity testing, frozen cell pellets were resuspended in lysate buffer containing 10 mM Tris-HCl (pH 7.2), 150 mM NaCl, 1.5 mM MgCl2, 1% v/v NP-40 and incubated for 15 minutes on ice. Lysate was cleared by centrifugation 800×g for 10 minutes, 4° C. and stored in aliquots at −80° C. until use. Proteins were determined using Pierce Coomassie Protein Reagent, according to manufacturer's instructions.
For each assay run, 1 mL of cell lysate (1.5 mg/mL protein) was mixed with benzylamine to 2000 ng/mL final concentration. At each corresponding time point, […] the incubation mixture was transferred to a microcentrifuge tube (1.7 mL) and mixed with 50 μL of acetonitrile. The tubes were vortex mixed briefly to ensure complete mixing and then centrifuged at 10,000×g for 5 minutes. The supernatant was removed and 50 μL was transferred to an autosampler vial and mixed with 50 μL of water before LC/MS/MS analysis. Benzylamine remaining in the lysate was analyzed with LC/MS/MS method.
LC/MS/MS analysis was performed with a PE Sciex API 3000 mass spectrometer under the following conditions listed below and in Tables 1 and 2: […]

On to `NCc1ccccc1` [Benzylamine], for which the “Benzylamine Remaining (%)” value (CHO Flp-In T-Rex lysate, 0 min) came out at 100%; the “Benzylamine Remaining (%)” value (CHO Flp-In T-Rex lysate, 10 min) is 95%; the “Benzylamine Remaining (%)” value (CHO Flp-In T-Rex lysate, 2 h) came out at 93%; the “Benzylamine Remaining (%)” value (CHO Flp-In lysate, 0 min) came to 100%; the “Benzylamine Remaining (%)” value (CHO Flp-In lysate, 10 min) came to 101%; the “Benzylamine Remaining (%)” value (CHO Flp-In lysate, 2 h) came to 98%. In addition, the “Benzylamine Remaining (%)” value runs as follows: (HEK293 lysate, 0 min) 100%; (HEK293 lysate, 10 min) 111%; (HEK293 lysate, 2 h) 103%.
